Data taken from paper PMC9401600 (Chemmedchem, 2022).

Key:
G9a = molecular target: T1, G9a (Homo sapiens, UniProt Q96KQ7); assay: G9a Homogeneous Assay Kit (AlphaLISA) G9a inhibition; format: biochemical; settings: for IC50: AlphaLISA, 100 μM SAM and peptide substrate
T1 construct: purchased BPS Bioscience 52051
T1 sequence (Q96KQ7 1-1210): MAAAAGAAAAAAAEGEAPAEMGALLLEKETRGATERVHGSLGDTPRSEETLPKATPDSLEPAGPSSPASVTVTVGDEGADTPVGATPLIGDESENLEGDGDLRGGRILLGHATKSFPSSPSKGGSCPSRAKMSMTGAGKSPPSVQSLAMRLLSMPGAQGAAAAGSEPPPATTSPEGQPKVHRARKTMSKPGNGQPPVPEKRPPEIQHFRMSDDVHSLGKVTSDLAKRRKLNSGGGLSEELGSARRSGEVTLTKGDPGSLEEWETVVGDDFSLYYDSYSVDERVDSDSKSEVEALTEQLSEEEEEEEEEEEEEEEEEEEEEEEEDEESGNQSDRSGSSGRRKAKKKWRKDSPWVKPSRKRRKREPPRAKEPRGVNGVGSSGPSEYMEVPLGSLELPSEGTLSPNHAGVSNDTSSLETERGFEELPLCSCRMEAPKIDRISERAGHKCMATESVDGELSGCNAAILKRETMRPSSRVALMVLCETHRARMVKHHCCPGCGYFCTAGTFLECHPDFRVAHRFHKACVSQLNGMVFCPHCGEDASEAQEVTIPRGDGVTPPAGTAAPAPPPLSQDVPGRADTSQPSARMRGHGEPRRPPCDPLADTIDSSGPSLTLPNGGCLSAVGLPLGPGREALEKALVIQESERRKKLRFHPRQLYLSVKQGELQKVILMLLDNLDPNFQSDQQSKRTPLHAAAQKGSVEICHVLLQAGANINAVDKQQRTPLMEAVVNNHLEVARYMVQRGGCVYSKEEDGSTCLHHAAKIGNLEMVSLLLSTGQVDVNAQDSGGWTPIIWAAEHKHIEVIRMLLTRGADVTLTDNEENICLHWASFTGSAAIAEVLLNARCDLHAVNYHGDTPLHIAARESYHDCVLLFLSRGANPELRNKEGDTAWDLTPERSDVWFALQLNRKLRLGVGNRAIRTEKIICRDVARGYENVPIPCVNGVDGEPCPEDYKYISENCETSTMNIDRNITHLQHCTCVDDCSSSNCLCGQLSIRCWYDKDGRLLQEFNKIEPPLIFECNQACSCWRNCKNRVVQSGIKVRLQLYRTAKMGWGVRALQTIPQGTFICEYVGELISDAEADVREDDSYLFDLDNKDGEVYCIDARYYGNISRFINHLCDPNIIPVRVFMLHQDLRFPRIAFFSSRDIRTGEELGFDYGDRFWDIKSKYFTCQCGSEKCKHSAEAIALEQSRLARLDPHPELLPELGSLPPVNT
Procedure: The percentages of G9a activity for the 10 selected molecules were determined at 100 μM S‐adenosylmethionine (SAM) and peptide substrate using AlphaLISA® technology. These percentages were used to calculate the IC50.
G9a inhibitors were serially diluted between 5 nM and 0.001 nM in 100 % DMSO (Sigma, St. Louis, USA). Then, respective concentrations were subsequently diluted in MilliQ purified water to reach a final concentration ranging between 50 and 0.001 μM in 1 % DMSO in well.
Briefly, a sample containing the G9a enzyme is incubated with the biotinylated substrate plus inhibitor solution for two hours. Next, acceptor beads and primary antibody is added, followed by donor beads. Finally, the Alpha‐counts were read using an AlphaScreen microplate reader. The experiment was run per triplicate. G9aactivity(%)=(C-Cb)/(Ct-Cb)x100
Ct=The chemiluminescence reading in the absence of the compound. The data set here is defined as 100 % activity in the absence of the compound.
Cb=The chemiluminescence reading in absence of enzyme. The data set here is defined as 0 % activity in the absence of the enzyme.
C=The chemiluminescence reading in the presence of the compound.
Data analysis was conducted using GraphPad Prism ver. 9 statistical software. The statistical outliers were identified with Grubb's test and excluded from the analysis. Group comparisons were carried out with a One‐way Analysis of variance (ANOVA), followed by the Dunnett post hoc test. In some cases, comparison between groups was also performed by unpaired t‐test or One‐way ANOVA, followed by Fisher's LSD post hoc test. For the calculation of IC50, non‐linear regressions were performed. […] Values are shown as the mean ± Standard error of the mean (SEM) of at least n=3. Statistical significance was considered when p values were <0.05.

C. elegans strain CL2006 = assay: Locomotion assay (motor index); format: in vivo, Caenorhabditis elegans; settings: CL2006 worms, 0.001-1 μM, chronic treatment, compared with UNC0638
Procedure: One of the best‐characterized transgenic AD strains in C. elegans is the CL2006 strain, which contains the Punc‐54::Aβ1–42 transgene, showing a progressive adult‐onset paralysis. Then, to establish a dose‐response profile, the pharmacological impact of G9a inhibition was evaluated in a locomotion assay with this C. elegans strain. We performed a motility assay where animals were placed in the center of a seeded plate and allowed to explore the environment freely. […] N2 (WT), and CL2006 strain were treated with dimethyl sulfoxide (DMSO) 1 %, used as a vehicle, which should not cause a relevant locomotor defective phenotype. […] The motor index for each condition was calculated using the motor performance of Bristol (N2) (WT, 100 %) and the transgenic AD strain (CL2006, 0 %) animals as reference.
Locomotion assay of G9a inhibitors was assessed to obtain dose‐response profile, evaluating the impact of the pharmacology treatment in motor dysfunction presented by the transgenic strains CL2006. Nematodes were synchronized by alkaline hypochlorite treatment, and drug assay was performed as described above, except for the OP50 bacteria OD595 adjusted to 0.9, and the duration of the treatment was 5 days. N2 (WT), and the transgenic strain CL2006 were treated in liquid media for 4 days at 20 °C and 180 rpm, starting at the L1 stage. On day 5 of age, worms were transferred from the 96‐well plates onto an unseeded NGM plate for 45 minutes before starting the trial, allowing the plates to dry and worms. Locomotion assays were performed in 30 mm NGM plates, in which the whole surface of the plate was covered by OP50. 5 to 10 adult nematodes were placed in the center of a circle (with 1 cm of diameter) in the seeded 30 mm NGM plates. After 1 min, the number of animals remaining inside the circle was scored as a locomotor defect. Motor behavior assays were run in triplicates (n=3), with a total of at least 100 animals tested per compound concentration. Motor index establishes a score where treated animals showing the same motor defect as CL2006 have an index of 0 %. […] All the results shown in the figures are calculated using the following formula: Motorindex(%)=(LDCL2006vehicle-LDCL2006drug)/(LDCL2006vehicle-LDWTvehicle)×100 LD=locomotiondefective

PAMPA‐BBB assay = format: in vitro ADME; settings: pig; PAMPA‐BBB, PBS:EtOH (70 : 30); read-out: Permeability (Pe) experimental value
Procedure: To evaluate the brain penetration of the different compounds, a parallel artificial membrane permeation assay for BBB was used, following the method described by Di et al..[33] The in vitro Pe of fourteen commercial drugs through lipid extract of porcine brain membrane together with the test compounds were determined. Commercial drugs and assayed compounds were tested using a mixture of PBS:EtOH (70 : 30).

| SMILES | remaining activity at 0.0001 µM (G9a; first data set of Table S2) | remaining activity at 0.0001 µM (G9a; second data set of Table S2) | remaining activity at 0.0001 µM (G9a; third data set of Table S2) | remaining activity at 0.001 µM (G9a; first data set of Table S2) | remaining activity at 0.001 µM (G9a; second data set of Table S2) | remaining activity at 0.001 µM (G9a; third data set of Table S2) | remaining activity at 0.01 µM (G9a; first data set of Table S2) | remaining activity at 0.01 µM (G9a; second data set of Table S2) | remaining activity at 0.01 µM (G9a; third data set of Table S2) | remaining activity at 0.1 µM (G9a; first data set of Table S2) | remaining activity at 0.1 µM (G9a; second data set of Table S2) | remaining activity at 0.1 µM (G9a; third data set of Table S2) | remaining activity at 1 µM (G9a; first data set of Table S2) | remaining activity at 1 µM (G9a; second data set of Table S2) | remaining activity at 1 µM (G9a; third data set of Table S2) | remaining activity at 10 µM (G9a; first data set of Table S2) | remaining activity at 10 µM (G9a; second data set of Table S2) | remaining activity at 10 µM (G9a; third data set of Table S2) | remaining activity at 50 µM (G9a; first data set of Table S2) | remaining activity at 50 µM (G9a; second data set of Table S2) | also measured |
| --- | --- | --- | --- | --- | --- | --- | --- | --- | --- | --- | --- | --- | --- | --- | --- | --- | --- | --- | --- | --- | --- |
| Cn1ccnc1-c1ccc(NCC(c2cccnc2)N2CCOCC2)nn1 (centres unmarked) [A] | 31% | 32.1% | 31.6% | 27.8% | 30.6% | 29.2% | 22.9% | 30.7% | 26.8% | 22.8% | 22.7% | 22.7% | 14.8% | 15.1% | 15% | 10% | 11.3% | 10.6% | -0.4% | 0.9% | remaining activity at 50 µM (G9a; third data set of Table S2): 0.3% |
| CC(C)c1nccn1CCCNCc1cc(CN2CCCC2)cs1 [C] | 32.8% | 32.7% | 32.8% | 22.2% | 23.9% | 23.1% | 15.1% | 19.5% | 17.3% | 12% | 12.6% | 12.3% | 11.5% | 12.4% | 12% | 10.9% | 11.3% | 11.1% | 10.7% | 10.9% | remaining activity at 50 µM (G9a; third data set of Table S2): 10.8%; IC50 (G9a): 1.7 nM; motor index dose‐response profile (in words) (C. elegans strain CL2006): ameliorating the paralysis presented by CL2006 |
| c1ccc(OCCn2ccnc2)c(CN2CCN(c3ccncc3)CC2)c1 [Compound B] | 9.3% | 10.8% | 10% | 8.7% | 11.6% | 10.1% | 3.5% | 7.3% | 5.4% | 2.1% | 5.3% | 3.7% | 1.2% | 3.8% | 2.5% | 0.9% | 1.6% | 1.2% | 0.2% | 0.6% | remaining activity at 50 µM (G9a; third data set of Table S2): 0.4%; IC50 (G9a): 9.4 nM; motor index dose‐response profile (in words) (C. elegans strain CL2006): did not show an improved performance against the motor indexes of the control UNC0638 |
| Fc1ccccc1CN1CCC(CN(Cc2ccccn2)CC2CCCO2)CC1 (centres unmarked) [Compound D] | 33% | 33.8% | 33.4% | 29.3% | 28.4% | 28.8% | 23% | 21.5% | 22.2% | 15.8% | 15.9% | 15.9% | 11.5% | 14.2% | 12.8% | 8.3% | 10.3% | 9.3% | 9.9% | 12.1% | remaining activity at 50 µM (G9a; third data set of Table S2): 11%; IC50 (G9a): 10.5 nM |
| CCc1nccn1CCC(=O)Nc1cccc(NC(=O)CN(C)C)c1 [G] | 29.6% | 33.7% | 31.7% | 26% | 28.7% | 27.4% | 17.6% | 16.1% | 16.8% | 11.4% | 12.3% | 11.9% | 8.7% | 10.3% | 9.5% | 8.5% | 9.1% | 8.8% | 7.7% | 9.1% | remaining activity at 50 µM (G9a; third data set of Table S2): 8.4%; IC50 (G9a): 5.8 nM; motor index dose‐response profile (in words) (C. elegans strain CL2006): motor index decreased progressively as the dose decreased |
| CC(C)c1nccn1C(C)C(=O)Nc1ccc(NC(=O)CN2CCCCC2)cc1 (centres unmarked) [I] | 30.9% | 29.3% | 30.1% | 24% | 22.5% | 23.2% | 13.5% | 12.8% | 13.2% | 8.2% | 9.3% | 8.7% | 6.8% | 7.3% | 7.1% | 6.6% | 5.7% | 6.2% | 5.9% | 4.8% | remaining activity at 50 µM (G9a; third data set of Table S2): 5.3%; IC50 (G9a): 3.9 nM; motor index dose‐response profile (in words) (C. elegans strain CL2006): lowest motor index in the maximum and minimum dose tested |
| CN1C(C(=O)Nc2ccccn2)=C(O)c2ccccc2S1(=O)=O [Piroxicam, reference compound] |  |  |  |  |  |  |  |  |  |  |  |  |  |  |  |  |  |  |  |  | Papp (PAMPA‐BBB assay): 2 ± 0.08 ×10⁻⁶ cm/s |
| CC(=O)[C@H]1CC[C@H]2[C@@H]3CCC4=CC(=O)CC[C@]4(C)[C@H]3CC[C@]12C [Progesterone, reference compound] |  |  |  |  |  |  |  |  |  |  |  |  |  |  |  |  |  |  |  |  | Papp (PAMPA‐BBB assay): 14.7 ± 0.3 ×10⁻⁶ cm/s |
